# Legend:
# Test in all cases: relative viability (nuclei count vs DMSO), 5 days (fraction); higher = more cells survive
# [1] = compound: CN(c1ncccc1CNc1nc(Nc2ccc3c(c2)CC(=O)N3)ncc1C(F)(F)F)S(C)(=O)=O + CS(=O)(=O)CCNCc1ccc(-c2ccc3ncnc(Nc4ccc(OCc5cccc(F)c5)c(Cl)c4)c3c2)o1 [Lapatinib] (partner 2 µM)
# Method in brief: (§1)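 The day after seeding in 1536-well plates, lung cancer cell lines were treated by pin tool with a single drug, or with a fixed anchor-drug dose together with five library-drug doses (not always all listed) in √10 steps. After 5 days, a combined fix-and-stain solution (final 0.05% Triton X-100, 1% formaldehyde, 1 ug/ml Hoechst) was added. Nuclei counted on 4× images gave relative viability as treated counts over vehicle counts, reported as the median of duplicate plates.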
# [2] = compound: CN(c1ncccc1CNc1nc(Nc2ccc3c(c2)CC(=O)N3)ncc1C(F)(F)F)S(C)(=O)=O + Cc1nc(Nc2ncc(C(=O)Nc3c(C)cccc3Cl)s2)cc(N2CCN(CCO)CC2)n1 [Dasatinib] (partner 0.075 µM)
# Method in brief: as §1
# [3] = compound: CN(c1ncccc1CNc1nc(Nc2ccc3c(c2)CC(=O)N3)ncc1C(F)(F)F)S(C)(=O)=O + C[C@@H](Oc1cc(-c2cnn(C3CCNCC3)c2)cnc1N)c1c(Cl)ccc(F)c1Cl [Crizotinib] (partner 1 µM)
# Method in brief: as §1
# [4] = compound: CN(c1ncccc1CNc1nc(Nc2ccc3c(c2)CC(=O)N3)ncc1C(F)(F)F)S(C)(=O)=O + Nc1nc2[nH]cc(CCc3ccc(C(=O)N[C@@H](CCC(=O)O)C(=O)O)cc3)c2c(=O)[nH]1 [Pemetrexed] (partner 0.2 µM)
# Method in brief: as §1
cell line,measurement,setting,value
NCI-H727,relative viability,[1]; first compound 0.01 µM,0.813
same,relative viability,[1]; first compound 0.03162 µM,1.09
same,relative viability,[1]; first compound 0.1 µM,0.549
same,relative viability,[1]; first compound 0.3162 µM,0.85
same,relative viability,[1]; first compound 1 µM,0.676
same,relative viability,[2]; first compound 0.01 µM,0.363
same,relative viability,[2]; first compound 0.03162 µM,0.287
same,relative viability,[2]; first compound 0.1 µM,0.271
same,relative viability,[2]; first compound 0.3162 µM,0.272
same,relative viability,[2]; first compound 1 µM,0.264
same,relative viability,[3]; first compound 0.01 µM,0.925
same,relative viability,[3]; first compound 0.03162 µM,1.02
same,relative viability,[3]; first compound 0.1 µM,0.633
same,relative viability,[3]; first compound 0.3162 µM,0.885
same,relative viability,[3]; first compound 1 µM,0.689
NCI-H1355,relative viability,[4]; first compound 0.01 µM,1.02
same,relative viability,[4]; first compound 0.03162 µM,0.981
same,relative viability,[4]; first compound 0.1 µM,0.993
same,relative viability,[4]; first compound 0.3162 µM,1.02
same,relative viability,[4]; first compound 1 µM,0.973
same,relative viability,[1]; first compound 0.01 µM,1.03
same,relative viability,[1]; first compound 0.03162 µM,1.04
same,relative viability,[1]; first compound 0.1 µM,0.985
same,relative viability,[1]; first compound 0.3162 µM,0.919
same,relative viability,[1]; first compound 1 µM,0.873
same,relative viability,[2]; first compound 0.01 µM,0.757
same,relative viability,[2]; first compound 0.03162 µM,0.76
same,relative viability,[2]; first compound 0.1 µM,0.75
same,relative viability,[2]; first compound 0.3162 µM,0.606
same,relative viability,[2]; first compound 1 µM,0.645
same,relative viability,[3]; first compound 0.01 µM,1.06
same,relative viability,[3]; first compound 0.03162 µM,1.13
same,relative viability,[3]; first compound 0.1 µM,1.02
same,relative viability,[3]; first compound 0.3162 µM,0.97
same,relative viability,[3]; first compound 1 µM,0.924
NCI-H1975,relative viability,[4]; first compound 0.01 µM,0.296
same,relative viability,[4]; first compound 0.03162 µM,0.283
same,relative viability,[4]; first compound 0.1 µM,0.275
same,relative viability,[4]; first compound 0.3162 µM,0.296
same,relative viability,[4]; first compound 1 µM,0.288
same,relative viability,[1]; first compound 0.01 µM,0.921
same,relative viability,[1]; first compound 0.03162 µM,0.971
same,relative viability,[1]; first compound 0.1 µM,0.914
same,relative viability,[1]; first compound 0.3162 µM,0.926
same,relative viability,[1]; first compound 1 µM,0.723
same,relative viability,[2]; first compound 0.01 µM,0.359
same,relative viability,[2]; first compound 0.03162 µM,0.272
same,relative viability,[2]; first compound 0.1 µM,0.28
same,relative viability,[2]; first compound 0.3162 µM,0.27
same,relative viability,[2]; first compound 1 µM,0.262
same,relative viability,[3]; first compound 0.01 µM,0.999
same,relative viability,[3]; first compound 0.03162 µM,0.981
same,relative viability,[3]; first compound 0.1 µM,0.911
same,relative viability,[3]; first compound 0.3162 µM,0.96
same,relative viability,[3]; first compound 1 µM,0.746
LK-2,relative viability,[4]; first compound 0.01 µM,0.309
same,relative viability,[4]; first compound 0.03162 µM,0.28
same,relative viability,[4]; first compound 0.1 µM,0.252
same,relative viability,[4]; first compound 0.3162 µM,0.251
same,relative viability,[4]; first compound 1 µM,0.29
same,relative viability,[1]; first compound 0.01 µM,1.16
same,relative viability,[1]; first compound 0.03162 µM,1.21
same,relative viability,[1]; first compound 0.1 µM,1.02
same,relative viability,[1]; first compound 0.3162 µM,0.984
same,relative viability,[1]; first compound 1 µM,1
same,relative viability,[2]; first compound 0.01 µM,0.316
same,relative viability,[2]; first compound 0.03162 µM,0.293
same,relative viability,[2]; first compound 0.1 µM,0.269
same,relative viability,[2]; first compound 0.3162 µM,0.312
same,relative viability,[2]; first compound 1 µM,0.27
same,relative viability,[3]; first compound 0.01 µM,0.248
same,relative viability,[3]; first compound 0.03162 µM,0.215
same,relative viability,[3]; first compound 0.1 µM,0.254
same,relative viability,[3]; first compound 0.3162 µM,0.21
same,relative viability,[3]; first compound 1 µM,0.192
NCI-H441,relative viability,[4]; first compound 0.01 µM,0.222
same,relative viability,[4]; first compound 0.03162 µM,0.262
same,relative viability,[4]; first compound 0.1 µM,0.244
same,relative viability,[4]; first compound 0.3162 µM,0.292
same,relative viability,[4]; first compound 1 µM,0.262
same,relative viability,[2]; first compound 0.01 µM,0.631
same,relative viability,[2]; first compound 0.03162 µM,0.497
same,relative viability,[2]; first compound 0.1 µM,0.378
same,relative viability,[2]; first compound 0.3162 µM,0.35
same,relative viability,[2]; first compound 1 µM,0.295
same,relative viability,[3]; first compound 0.01 µM,0.679
same,relative viability,[3]; first compound 0.03162 µM,0.825
same,relative viability,[3]; first compound 0.1 µM,0.604
same,relative viability,[3]; first compound 0.3162 µM,0.692
same,relative viability,[3]; first compound 1 µM,0.654
EBC-1,relative viability,[1]; first compound 0.01 µM,0.217
same,relative viability,[1]; first compound 0.03162 µM,0.187
same,relative viability,[1]; first compound 0.1 µM,0.248
same,relative viability,[1]; first compound 0.3162 µM,0.204
same,relative viability,[1]; first compound 1 µM,0.2
same,relative viability,[3]; first compound 0.01 µM,0.204
same,relative viability,[3]; first compound 0.03162 µM,0.195
same,relative viability,[3]; first compound 0.1 µM,0.216
same,relative viability,[3]; first compound 0.3162 µM,0.2
same,relative viability,[3]; first compound 1 µM,0.186
HCC-44,relative viability,[4]; first compound 0.01 µM,0.668
same,relative viability,[4]; first compound 0.03162 µM,0.622
same,relative viability,[4]; first compound 0.1 µM,0.639
same,relative viability,[4]; first compound 0.3162 µM,0.65
same,relative viability,[4]; first compound 1 µM,0.611
same,relative viability,[1]; first compound 0.01 µM,1.09
same,relative viability,[1]; first compound 0.03162 µM,0.986
same,relative viability,[1]; first compound 0.1 µM,0.987
same,relative viability,[1]; first compound 0.3162 µM,0.993
same,relative viability,[1]; first compound 1 µM,0.972
same,relative viability,[3]; first compound 0.01 µM,0.876
same,relative viability,[3]; first compound 0.03162 µM,0.893
same,relative viability,[3]; first compound 0.1 µM,0.798
same,relative viability,[3]; first compound 0.3162 µM,0.788
same,relative viability,[3]; first compound 1 µM,0.749
SW 900,relative viability,[4]; first compound 0.01 µM,0.49
same,relative viability,[4]; first compound 0.03162 µM,0.459
same,relative viability,[4]; first compound 0.1 µM,0.477
same,relative viability,[4]; first compound 0.3162 µM,0.484
same,relative viability,[4]; first compound 1 µM,0.51
same,relative viability,[2]; first compound 0.01 µM,0.559
same,relative viability,[2]; first compound 0.03162 µM,0.613
same,relative viability,[2]; first compound 0.1 µM,0.477
same,relative viability,[2]; first compound 0.3162 µM,0.456
same,relative viability,[2]; first compound 1 µM,0.403

# — the supplement of paper PMC10307832
